From ChEMBL document CHEMBL1201862, “PubChem BioAssay data set” (2004)
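Compound exposure: 48 hours, 5 concentrations, 96-well plates. GI50 = concentration required for 50% inhibition of growth.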 Calls of active or inactive are those of the source. Rule as the data show it: active = GI50 up to about 1.1 µM and inactive = higher.

Experiments:
Assay in all cases: DTP human tumour cell line panel, 48 h
SNB-75 = test system: SNB-75
SW-620 = test system: SW-620
NCI/ADR-RES = test system: NCI/ADR-RES
Hs-578T = test system: Hs-578T
HCC 2998 = test system: HCC 2998
SK-MEL-5 = test system: SK-MEL-5
NCI-H23 = test system: NCI-H23
TK-10 = test system: TK-10
K562 = test system: K562
UO-31 = test system: UO-31
SK-MEL-28 = test system: SK-MEL-28
786-0 = test system: 786-0
RXF 393 = test system: RXF 393
M14 = test system: M14
SNB-19 = test system: SNB-19
U-251 = test system: U-251
HOP-92 = test system: HOP-92
DU-145 = test system: DU-145
HCT-116 = test system: HCT-116
MOLT-4 = test system: MOLT-4

Measured: GI50

Cc1cc(C)c(P2C(=C(O[Si](C(C)C)(C(C)C)C(C)C)C(C)(C)C)C2(c2ccccc2)c2ccccc2)c(C)c1 (stereo not given)
inactive: SNB-75 88.1 µM | SW-620 > 100 µM | NCI/ADR-RES > 100 µM | Hs-578T > 100 µM | HCC 2998 > 100 µM | SK-MEL-5 > 100 µM | NCI-H23 > 100 µM | TK-10 > 100 µM | K562 67 µM | UO-31 76.9 µM | SK-MEL-28 > 100 µM | 786-0 > 100 µM | RXF 393 > 100 µM | M14 > 100 µM | SNB-19 > 100 µM | U-251 > 100 µM | HOP-92 > 100 µM | DU-145 > 100 µM | HCT-116 52.8 µM | MOLT-4 > 100 µM

COc1cc2c(cc1O)NC(=O)[C@@H]1C[C@@H](O)CN1C2=O
inactive: SNB-75 > 100 µM | SW-620 64.3 µM | NCI/ADR-RES 11.4 µM | Hs-578T 43.8 µM | HCC 2998 > 100 µM | SK-MEL-5 58.1 µM | NCI-H23 > 100 µM | TK-10 > 100 µM | K562 57.7 µM | UO-31 64.4 µM | SK-MEL-28 > 100 µM | 786-0 52 µM | RXF 393 > 100 µM | M14 72.1 µM | SNB-19 > 100 µM | U-251 79.3 µM | HOP-92 > 100 µM | DU-145 > 100 µM | HCT-116 49 µM | MOLT-4 37.6 µM

CCOC(=O)C(NS(=O)(=O)c1ccccc1)(C(F)(F)F)P(=O)(OCC(C)C)OCC(C)C (stereo not given)
inactive: SNB-75 > 100 µM | SW-620 > 100 µM | NCI/ADR-RES > 100 µM | Hs-578T > 100 µM | HCC 2998 > 100 µM | SK-MEL-5 > 100 µM | NCI-H23 > 100 µM | TK-10 > 100 µM | K562 > 100 µM | UO-31 98.2 µM | SK-MEL-28 > 100 µM | 786-0 > 100 µM | RXF 393 > 100 µM | M14 > 100 µM | SNB-19 > 100 µM | U-251 > 100 µM | HOP-92 > 100 µM | DU-145 > 100 µM | HCT-116 > 100 µM | MOLT-4 > 100 µM

CC(=O)Nc1nnc(S(=O)(=O)NC(=S)Nc2ccc(Cl)cc2)s1
inactive: SNB-75 > 100 µM | SW-620 > 100 µM | NCI/ADR-RES > 100 µM | Hs-578T > 100 µM | HCC 2998 > 100 µM | SK-MEL-5 > 100 µM | NCI-H23 > 100 µM | TK-10 > 100 µM | K562 > 100 µM | UO-31 > 100 µM | SK-MEL-28 > 100 µM | 786-0 > 100 µM | RXF 393 > 100 µM | M14 > 100 µM | SNB-19 > 100 µM | U-251 > 100 µM | HOP-92 > 100 µM | DU-145 > 100 µM | HCT-116 > 100 µM | MOLT-4 > 100 µM
